Measurements as given in publication PMC4821887, “Identification of chemicals that mimic transcriptional changes associated with autism, brain aging and neurodegeneration” (Nature Communications, 2016).

System: mouse cortical cultures
Assay: RNA-seq differential expression (DESeq) against matched vehicle
Format: cell-based
Parameters: key to MeanFenamidone Bcl11b / MeanFenamidone Slc12a4 / MeanFenamidone Abca1 / MeanFenamidone Hmox1 / MeanFenamidone Il1rap / MeanFenamidone Cyba / MeanFenamidone Narf / MeanFenamidone Bnip3 / MeanFenamidone Amotl2 / MeanFenamidone Gad2 / MeanFenamidone Vsnl1 / MeanFenamidone Fam178a: DESeq mean of counts over RefSeq exons
Protocol: Figure 4 Cluster 2 chemicals alter expression of a common set of genes. […] RNA-seq was performed in quadruplicate after treating cortical cultures with fenamidone (10 μM) or pyraclostrobin (0.1 μM) for 24 h (n=3 biological replicates) and compared with matched vehicle controls using DESeq to detect differentially expressed genes, listed in Supplementary Data 4.
Cultures were treated with the non-cytotoxic dose of each chemical, by exchanging half of the original medium with chemicals at 2 × concentration in prewarmed feeding medium, on DIV 7 for 24 h in 12-well plates at a density of 5 × 10^5 cells per well. RNA was isolated using RNeasy plus mini kit (Cat. #74134, Qiagen). […]. Samples were further assessed for quality using either an Agilent Bioanalyzer 2100 or TapeStation 2200 to obtain a RIN. RIN values exceeding 7 were used for sequencing. RNA samples were used to generate and barcode complementary DNA libraries using the TruSeq RNA Library Preparation Kit at the UNC High Throughput Sequencing Facility. Pools of 24 multiplexed samples were sequenced per lane on an Illumina HiSeq 2500 using 50-bp paired-end reads.
RNA-seq reads were filtered using TagDust and aligned to the reference mouse genome (mm9) with TopHat using default parameters. Reads aligning to ribosomal RNA genes were removed. Transcript abundance was estimated by computing Reads per kilobase per million mapped reads (RPKM) using RefSeq gene models aggregated by gene symbol. For differential expression analyses, raw counts over RefSeq exons were used, and then were compared across samples using DESeq[62].

SMILES: CSC1=N[C@@](C)(c2ccccc2)C(=O)N1Nc1ccccc1 [fenamidone]
- Differentially expressed genes (DESeq) compared between the two fungicides (fenamidone 10 μM or pyraclostrobin 0.1 μM, 24 h): up- and downregulate a largely overlapping set of genes
- MeanFenamidone (DESeq mean normalized counts) (gene 2810011L19Rik, Fenamidone, 4 reps, vs matched vehicle): 45.3905
- MeanFenamidone (gene 3632451O06Rik): 64.8489
- log2FoldChange (gene 3632451O06Rik): -1.594
- MeanFenamidone (gene 4931428F04Rik): 315.322
- log2FoldChange (gene 4931428F04Rik): -1.331
- MeanFenamidone (gene 4933426M11Rik): 495.966
- log2FoldChange (gene 4933426M11Rik): 1.2253
- MeanFenamidone 9930013L23Rik (gene 9930013L23Rik, DESeq mean, 4 reps): 645.322
- log2FoldChange 9930013L23Rik (gene 9930013L23Rik, vs vehicle, 4 reps): 2.2987
- MeanFenamidone AF357359 (gene AF357359, DESeq mean, 4 reps): 31.2414
- log2FoldChange AF357359 (gene AF357359, vs vehicle, 4 reps): -2.02
- MeanFenamidone Abca1 (gene Abca1, DESeq mean, 4 reps): 1327.24
- log2FoldChange Abca1 (gene Abca1, vs vehicle, 4 reps): 1.708
- MeanFenamidone Acadl (gene Acadl, DESeq mean, 4 reps): 174.046
- log2FoldChange Acadl (gene Acadl, vs vehicle, 4 reps): 2.185
- MeanFenamidone Acadvl (gene Acadvl, DESeq mean, 4 reps): 272.079
- log2FoldChange Acadvl (gene Acadvl, vs vehicle, 4 reps): 1.576
- MeanFenamidone Acsbg1 (gene Acsbg1, DESeq mean, 4 reps): 241.134
- log2FoldChange Acsbg1 (gene Acsbg1, vs vehicle, 4 reps): 1.737
- MeanFenamidone Acta2 (gene Acta2, DESeq mean, 4 reps): 2838.59
- log2FoldChange Acta2 (gene Acta2, vs vehicle, 4 reps): 3.4285
- MeanFenamidone Actn1 (gene Actn1, DESeq mean, 4 reps): 711.955
- log2FoldChange Actn1 (gene Actn1, vs vehicle, 4 reps): 2.284
- MeanFenamidone Adamts5 (gene Adamts5, DESeq mean, 4 reps): 85.7871
- log2FoldChange Adamts5 (gene Adamts5, vs vehicle, 4 reps): 2.142
- MeanFenamidone Adarb2 (gene Adarb2, DESeq mean, 4 reps): 8.295
- log2FoldChange Adarb2 (gene Adarb2, vs vehicle, 4 reps): -3.192
- MeanFenamidone Agap2 (gene Agap2, DESeq mean, 4 reps): 683.65
- log2FoldChange Agap2 (gene Agap2, vs vehicle, 4 reps): -1.416
- MeanFenamidone Ahnak (gene Ahnak, DESeq mean, 4 reps): 1224
- log2FoldChange Ahnak (gene Ahnak, vs vehicle, 4 reps): 2.684
- MeanFenamidone Ajuba (gene Ajuba, DESeq mean, 4 reps): 246.575
- log2FoldChange Ajuba (gene Ajuba, vs vehicle, 4 reps): 2.23
- MeanFenamidone (gene Akap2): 757.95
- log2FoldChange (gene Akap2): 1.126
- MeanFenamidone Aldh4a1 (gene Aldh4a1, DESeq mean, 4 reps): 305.431
- log2FoldChange Aldh4a1 (gene Aldh4a1, vs vehicle, 4 reps): 1.584
- MeanFenamidone Amotl1 (gene Amotl1, DESeq mean, 4 reps): 463.485
- log2FoldChange Amotl1 (gene Amotl1, vs vehicle, 4 reps): 1.802
- MeanFenamidone Amotl2 (gene Amotl2, DESeq mean, 4 reps): 666.038
- log2FoldChange Amotl2 (gene Amotl2, vs vehicle, 4 reps): 1.759
- MeanFenamidone (gene Anxa2): 244.58
- log2FoldChange (gene Anxa2): 2.151
- MeanFenamidone Anxa3 (gene Anxa3, DESeq mean, 4 reps): 244.534
- log2FoldChange Anxa3 (gene Anxa3, vs vehicle, 4 reps): 3.475
- MeanFenamidone Arhgap18 (gene Arhgap18, DESeq mean, 4 reps): 128.165
- log2FoldChange Arhgap18 (gene Arhgap18, vs vehicle, 4 reps): 1.989
- MeanFenamidone (gene Arhgdig): 118.591
- log2FoldChange (gene Arhgdig): -1.355
- MeanFenamidone (gene Arhgef40): 160.321
- log2FoldChange (gene Arhgef40): 1.457
- MeanFenamidone Asah1 (gene Asah1, DESeq mean, 4 reps): 348.017
- log2FoldChange Asah1 (gene Asah1, vs vehicle, 4 reps): 1.772
- MeanFenamidone Ass1 (gene Ass1, DESeq mean, 4 reps): 83.2354
- log2FoldChange Ass1 (gene Ass1, vs vehicle, 4 reps): 3.013
- MeanFenamidone Atf3 (gene Atf3, DESeq mean, 4 reps): 64.246
- log2FoldChange Atf3 (gene Atf3, vs vehicle, 4 reps): 2.3746
- MeanFenamidone Atf5 (gene Atf5, DESeq mean, 4 reps): 765.032
- log2FoldChange Atf5 (gene Atf5, vs vehicle, 4 reps): 1.876
- MeanFenamidone Atl1 (gene Atl1, DESeq mean, 4 reps): 97.9838
- log2FoldChange Atl1 (gene Atl1, vs vehicle, 4 reps): -1.537
- MeanFenamidone Axl (gene Axl, DESeq mean, 4 reps): 322.064
- log2FoldChange Axl (gene Axl, vs vehicle, 4 reps): 2.208
- MeanFenamidone (gene Bak1): 236.594
- log2FoldChange (gene Bak1): 1.306
- MeanFenamidone Bcl11b (gene Bcl11b, DESeq mean, 4 reps): 202.325
- log2FoldChange Bcl11b (gene Bcl11b, vs vehicle, 4 reps): -1.501
- MeanFenamidone Bhlhe41 (gene Bhlhe41, DESeq mean, 4 reps): 115.206
- log2FoldChange Bhlhe41 (gene Bhlhe41, vs vehicle, 4 reps): 2.168
- MeanFenamidone (gene Bmp1): 153.886
- log2FoldChange (gene Bmp1): 1.3853
- MeanFenamidone Bnip3 (gene Bnip3, DESeq mean, 4 reps): 102.453
- log2FoldChange Bnip3 (gene Bnip3, vs vehicle, 4 reps): -1.924
- MeanFenamidone (gene Bnip3l): 236.54
- log2FoldChange (gene Bnip3l): -1.119
- MeanFenamidone (gene Bsn): 443.744
- log2FoldChange (gene Bsn): -1.148
